According to patent publication US6960594B2, “Thiophene and furan 2,5-dicarboxamides useful in the treatment of cancer” (Shire BioChem Inc., priority 1998, dated 2005):
Like-named read-outs stand apart in the source and are kept apart here.

Assays:
HMVEC = assay: Cell proliferation and cytotoxicity MTT assay, HMVEC; assay type: cell-based; details: 72 hours culture
Method: (§1) The wells of microtiter plates were seeded with 2000 cells/well T24, 2500 cells/well HT29 or 5000 cells/well HMVEC (Cell Systems) in 100 uL, followed by an overnight culture for cell adhesion. The next day, the media is supplemented with 100 uL of 10-fold dilution of compound of interest starting at 10 uM. Following culture for 72 hours, 3-(4,5-dimethyl-2-thiazolyl)-2,5-diphenyltetrazolium bromide (MTT; Sigma) at 2 mg/mL was added to each well (50 uL/well) and further incubated for 4 hours at 37° C. The medium was flicked out and 200 uL of a 1:1 solution of ethanol:acetone followed by 25 uL of glycine buffer (0.1 M glycine, 0.1M NaCl, pH 10.5) is added and the color measured by the absorbance at 570 nm.

GP IIb-IIIa (αIIbβ3) = biological target: T1, GP IIb-IIIa (αIIbβ3) (Homo sapiens, UniProt P05106+P08514); assay: Fibrinogen binding to immobilized GP IIb-IIIa (αIIbβ3)
T1 construct: purchased Calbiochem
Method: (§2) The wells of plastic microtiter plates were coated overnight at 4° C. with purified active αIIbβ3 (Calbiochem) or placental αvβ3 at 0.5 ug/mL (100 uL/well) in a buffer containing 150 mM NaCl, 20 mM Tris, pH 7.4, 1 mM MgCl2, 0.2 mM MnCl2, and including 1 mM CaCl2 for αIIbβ3. Blocking of nonspecific sites was achieved by incubating the wells with 35 mg/mL bovine serum albumin (BSA) for at least 2 hours at 37° C. Biotinylated-fibrinogen (10 nM) was added in 0.2 mL binding buffer (100 mM NaCl, 50 mM Tris, pH 7.4, 1 mM MgCl2, 0.2 mM MnCl2 and 1 mg/mL BSA including 1 mM CaCl2 for αIIbβ3) to the wells in triplicate in the absence or presence of increasing concentrations of compounds of interest (0.001-100 uM) and further incubated for 2 hours at 37° C. Nonbound fibrinogen was removed by five washes with binding buffer. Avidin conjugated to alkaline phosphatase (Sigma), diluted in binding buffer, was added and incubated for two hours at 37° C. The plates were washed five times with binding buffer, and after addition of the substrate PNPP (Pierce), the enzyme activity was measured by the absorbance at 405 nm.

α5β1 = biological target: T2, α5β1 (Homo sapiens, UniProt P05556+P08648); assay: Cell adhesion assay, K562 on fibronectin; assay type: cell-based; details: K562 cells, adhesion to fibronectin, 1 hour
T2 construct: Cells HT29, K562, or K562 transfected with αvβ3; endogenous in cells; host or cells: K562
Method: (§3) The wells of 96-well plates (Immunolon) were coated, by incubation overnight at 4° C., with 5 ug/mL vitronectin, 2 ug/mL osteopontin, or fibronectin or 10 mg/mL BSA in PBS. The protein solution was flicked out and the wells were blocked with 10 mg/mL BSA (0.1 mL) for 1-2 hours at 37° C. Cells HT29, K562, or K562 transfected with αvβ3 (Blystone et al., 1994) were loaded with a fluorescent marker, 5-chloromethylfluorescein diacetate (Molecular Probes, Eugene, Oreg.) for 1 hour at 37° C., then incubated in fresh medium without the fluorescent marker for 1 hour. Cells were lifted with trypsin-EDTA and washed two times with Hank's balanced salt solution minus cations (Sigma) supplemented with 1 mM MgCl2 Cells (75,000 cells/well) were added to coated plates in triplicate and allowed to attach at 37° C. for 1 hour in the presence or absence of specific antibodies (5 ug/mL) or 10-fold dilutions of compounds of interest starting at 10 uM. Nonadherent cells were removed by gentle washing twice with PBS. The adherent cells were solubilized with 1% triton x-100 and detected using a fluorescence plate reader (DYNEX Technologies). The number of attached cells was calculated based upon standard curves for each cell line used in the experiment. Non-specific cell attachment (attachment to wells coated with BSA) was always less than 5%.

αvβ3 = biological target: T3, αvβ3 (Homo sapiens, UniProt P05106+P06756); assay: Cell adhesion assay, K562-tr on osteopontin; assay type: cell-based
T3 construct: expressed in transfected cells; host or cells: K562
Method: as §3, with “Cells HT29, K562, or K562 transfected with αvβ3 (Blystone et al., 1994) were loaded with a fluorescent marker, 5-chloromethylfluorescein diacetate (Molecular Probes, Eugene, Oreg.) for 1 hour at 37° C., then incubated in fresh medium without the fluorescent marker for 1 hour.” left out, “experiment.” for “experiment. Non-specific cell attachment (attachment to wells coated with BSA) was always less than 5%.”

placental αvβ3 = biological target: T4, placental αvβ3 (Homo sapiens, UniProt P05106+P06756); assay: Fibrinogen binding to immobilized αvβ3
T4 construct: placental αvβ3 at 0.5 ug/mL; from tissue; host or cells: placenta
Method: as §2

HT29 = assay: Cell proliferation and cytotoxicity MTT assay, HT29; assay type: cell-based
Method: as §1

αvβ5 = biological target: T5, αvβ5 (Homo sapiens, UniProt P06756+P18084); assay: Cell adhesion assay, HT29 on vitronectin; assay type: cell-based
T5 construct: Cells HT29, K562, or K562 transfected with αvβ3; endogenous in cells; host or cells: HT29
Method: as §3, with “Cells HT29, K562, or K562 transfected with αvβ3 (Blystone et al., 1994) were loaded with a fluorescent marker, 5-chloromethylfluorescein diacetate (Molecular Probes, Eugene, Oreg.) for 1 hour at 37° C., then incubated in fresh medium without the fluorescent marker for 1 hour.” left out, “experiment.” for “experiment. Non-specific cell attachment (attachment to wells coated with BSA) was always less than 5%.”

[1] = test system: Chick chorioallantoic membrane (CAM) capillary formation driven by VPF/VEGF165; assay: Chick chorioallantoic membrane (CAM) mesh assay; assay type: in vivo, chicken; details: significant if >25%
Method: Fertilized white leghorn chicken eggs (SPAFAS Inc., Norwich, Conn.) were received at day 0 and incubated for 3 days at 37 C with constant humidity. On day 3, eggs were rinsed with 70% ethanol and opened into 100 mm^2 tissue culture coated Petri dishes under aseptic conditions. The embryos were then returned to a humidified 38 C incubator for 7-9 additional days.
Vitrogen (Collagen Biomaterials, Palo Alto, Calif.) at a final concentration of 0.73 mg/mL and Matrigel (Becton Dickinson, Bedford, Mass.) at a final concentration of 10 mg/mL was directly pipetted onto Nylon meshes with 250 μm^2 openings which were cut into 4 mm×4 mm squares and autoclaved. Polymerization of meshes were under aseptic conditions, on bacteriological Petri dishes. The polymerization conditions for each substrate were identical; after mixing with or without 250 μg of VPF/VEGF165 (Peprotech, Rocky Hill, N.J.) and/or compounds of interest, 40 μL were pipetted onto each mesh in a bacteriological Petri dish. The Petri dish was placed in a humidified 37 C incubator with 5% CO2 for 30 minutes to allow polymerization followed by an incubation at 4° C. for 2 hours.
In a tissue culture enclosure, meshes were placed onto the periphery of the CAM of a day 12-14 embryo, excluding areas containing major vessels. The embryos were then returned to the humidified 38° C. incubator with 3% CO2 for 24 to 48 additional hours.
Embryos were removed from the incubator and meshes were viewed under a dissecting microscope for gross evaluation. Injection of 400 μL FITC dextran, MW 2,000,000 (Sigma, St. Louis, Mo.) through glass microcapillary tubes by infusion into the umbilical vein was performed at a rate of 200 μl per minute. The FITC dextran was allowed to circulate for 5 minutes and 3.7% formaldehyde in PBS was applied directly on each mesh. The embryos were then incubated at 40° C. for 5 minutes and the meshes were dissected off the CAM and fixed in 3.7% formaldehyde for 10 minutes to overnight.
After fixation, meshes were mounted on slides with 90% glycerol in PBS and visualized on an inverted fluorescence microscope. A Nikon Diaphot with a Sony DXC-151A camera attached to the side port was used for capture of images and analysis was with the NIH Image 1.61 software program. For each mesh, 5 random staggered images (approximately 600 μm each) were captured. The areas of high intensity were highlighted and measured. Results are expressed as ability to suppress capillary formation after subtraction from negative control. Values were calculated as a inhibition, considering 100% the capillary density achieved by VPF in the presence of vitrogen alone minus the bakground levels in the absence of VPF. Negative values indicated angiogenic stimulation above the VPF positive control.

T1 sequence (P08514 32-887 limits assumed): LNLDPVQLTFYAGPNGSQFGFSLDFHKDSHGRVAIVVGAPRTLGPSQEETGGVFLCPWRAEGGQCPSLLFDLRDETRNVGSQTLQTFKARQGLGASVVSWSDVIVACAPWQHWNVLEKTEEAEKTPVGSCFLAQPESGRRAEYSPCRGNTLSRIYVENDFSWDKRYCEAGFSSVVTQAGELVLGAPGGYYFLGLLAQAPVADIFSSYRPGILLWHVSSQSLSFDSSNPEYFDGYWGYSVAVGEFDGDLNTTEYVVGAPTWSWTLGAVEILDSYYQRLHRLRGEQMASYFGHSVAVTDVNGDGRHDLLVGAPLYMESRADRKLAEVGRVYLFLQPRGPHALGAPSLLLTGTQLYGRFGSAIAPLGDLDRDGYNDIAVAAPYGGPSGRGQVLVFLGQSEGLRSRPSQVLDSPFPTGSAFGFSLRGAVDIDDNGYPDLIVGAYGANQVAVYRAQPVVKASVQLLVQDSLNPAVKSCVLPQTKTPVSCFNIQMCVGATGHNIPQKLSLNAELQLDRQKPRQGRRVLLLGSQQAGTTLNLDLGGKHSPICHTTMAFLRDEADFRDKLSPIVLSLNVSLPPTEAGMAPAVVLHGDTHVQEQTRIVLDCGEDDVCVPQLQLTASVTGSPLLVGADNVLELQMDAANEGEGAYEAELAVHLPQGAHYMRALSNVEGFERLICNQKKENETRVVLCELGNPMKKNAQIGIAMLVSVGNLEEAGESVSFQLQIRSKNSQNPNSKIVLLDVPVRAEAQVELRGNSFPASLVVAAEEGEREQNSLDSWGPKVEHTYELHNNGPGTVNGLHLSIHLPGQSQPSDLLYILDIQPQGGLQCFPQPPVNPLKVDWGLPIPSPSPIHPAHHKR
T1 sequence (P08514 891-1039 partner limits assumed): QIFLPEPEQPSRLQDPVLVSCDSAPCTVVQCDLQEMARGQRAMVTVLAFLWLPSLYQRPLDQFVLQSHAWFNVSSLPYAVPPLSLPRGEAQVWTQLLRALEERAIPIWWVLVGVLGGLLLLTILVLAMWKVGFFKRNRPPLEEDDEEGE
T1 sequence (P05106 27-788): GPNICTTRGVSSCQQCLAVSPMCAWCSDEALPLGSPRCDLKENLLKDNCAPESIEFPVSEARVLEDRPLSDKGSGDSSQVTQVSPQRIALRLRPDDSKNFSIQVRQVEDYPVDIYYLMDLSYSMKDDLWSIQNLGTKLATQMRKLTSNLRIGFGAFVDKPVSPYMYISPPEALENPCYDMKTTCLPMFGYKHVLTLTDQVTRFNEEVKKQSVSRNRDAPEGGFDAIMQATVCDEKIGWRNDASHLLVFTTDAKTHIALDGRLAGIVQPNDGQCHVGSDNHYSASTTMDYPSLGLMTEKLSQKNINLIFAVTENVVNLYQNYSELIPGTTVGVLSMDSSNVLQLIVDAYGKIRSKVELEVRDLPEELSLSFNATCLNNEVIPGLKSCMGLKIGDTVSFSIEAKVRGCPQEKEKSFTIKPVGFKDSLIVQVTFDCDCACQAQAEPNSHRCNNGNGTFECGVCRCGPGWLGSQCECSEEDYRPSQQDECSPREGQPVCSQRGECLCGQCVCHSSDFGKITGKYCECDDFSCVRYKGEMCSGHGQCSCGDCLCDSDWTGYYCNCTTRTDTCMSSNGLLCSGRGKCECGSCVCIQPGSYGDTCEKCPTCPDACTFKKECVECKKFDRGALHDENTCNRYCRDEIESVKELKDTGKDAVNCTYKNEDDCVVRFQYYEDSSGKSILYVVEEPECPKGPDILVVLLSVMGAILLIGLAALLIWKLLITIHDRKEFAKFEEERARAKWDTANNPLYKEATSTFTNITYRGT
T5 sequence (P06756 31-889 limits assumed): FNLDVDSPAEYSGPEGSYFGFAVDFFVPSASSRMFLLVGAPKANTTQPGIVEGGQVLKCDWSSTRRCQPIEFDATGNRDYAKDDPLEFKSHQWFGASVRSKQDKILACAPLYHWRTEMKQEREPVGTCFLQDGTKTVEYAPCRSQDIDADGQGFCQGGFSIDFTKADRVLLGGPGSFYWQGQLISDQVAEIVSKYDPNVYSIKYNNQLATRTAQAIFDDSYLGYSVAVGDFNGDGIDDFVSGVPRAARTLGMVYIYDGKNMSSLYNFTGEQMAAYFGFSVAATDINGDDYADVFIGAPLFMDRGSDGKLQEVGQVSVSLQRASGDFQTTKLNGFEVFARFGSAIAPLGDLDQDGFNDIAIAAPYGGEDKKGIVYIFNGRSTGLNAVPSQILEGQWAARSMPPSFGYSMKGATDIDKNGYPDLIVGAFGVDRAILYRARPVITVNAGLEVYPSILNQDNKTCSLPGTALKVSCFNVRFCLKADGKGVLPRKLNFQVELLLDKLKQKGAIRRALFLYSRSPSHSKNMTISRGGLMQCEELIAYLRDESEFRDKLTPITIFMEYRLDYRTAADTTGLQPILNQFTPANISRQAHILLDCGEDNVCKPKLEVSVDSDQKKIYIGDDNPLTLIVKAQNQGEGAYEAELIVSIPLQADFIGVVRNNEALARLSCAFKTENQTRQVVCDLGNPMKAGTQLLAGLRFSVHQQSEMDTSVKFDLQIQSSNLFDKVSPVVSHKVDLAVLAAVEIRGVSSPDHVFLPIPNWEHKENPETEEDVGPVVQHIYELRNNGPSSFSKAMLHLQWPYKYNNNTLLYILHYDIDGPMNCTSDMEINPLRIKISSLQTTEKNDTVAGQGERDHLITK
T5 sequence (P06756 891-1048 partner limits assumed): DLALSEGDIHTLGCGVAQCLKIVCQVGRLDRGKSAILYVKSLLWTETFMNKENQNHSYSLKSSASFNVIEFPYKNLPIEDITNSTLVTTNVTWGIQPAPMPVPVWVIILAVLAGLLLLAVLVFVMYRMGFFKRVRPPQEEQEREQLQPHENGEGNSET
T5 sequence (P18084 24-799): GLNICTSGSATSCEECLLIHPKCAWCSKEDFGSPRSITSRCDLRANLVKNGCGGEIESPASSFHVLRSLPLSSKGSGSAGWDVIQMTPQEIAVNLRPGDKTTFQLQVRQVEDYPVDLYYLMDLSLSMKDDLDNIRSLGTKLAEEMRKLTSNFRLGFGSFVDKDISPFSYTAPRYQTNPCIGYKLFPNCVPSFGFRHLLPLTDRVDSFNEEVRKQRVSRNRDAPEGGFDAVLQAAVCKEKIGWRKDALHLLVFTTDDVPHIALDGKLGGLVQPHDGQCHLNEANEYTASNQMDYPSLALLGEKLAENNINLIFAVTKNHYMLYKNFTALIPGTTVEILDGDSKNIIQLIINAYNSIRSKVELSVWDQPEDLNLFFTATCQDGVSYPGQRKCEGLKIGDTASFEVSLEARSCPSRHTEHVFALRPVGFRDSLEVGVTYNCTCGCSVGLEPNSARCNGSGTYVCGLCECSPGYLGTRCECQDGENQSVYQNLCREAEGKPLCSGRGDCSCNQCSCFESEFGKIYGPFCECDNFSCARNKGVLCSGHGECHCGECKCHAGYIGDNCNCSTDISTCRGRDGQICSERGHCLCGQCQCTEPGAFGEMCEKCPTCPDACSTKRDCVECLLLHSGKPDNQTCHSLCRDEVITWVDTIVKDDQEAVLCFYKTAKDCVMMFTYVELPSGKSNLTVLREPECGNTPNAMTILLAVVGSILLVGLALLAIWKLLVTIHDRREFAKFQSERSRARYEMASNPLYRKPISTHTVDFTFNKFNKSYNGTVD
T3 sequence (P06756 31-889 limits assumed): as the sequence (P06756 31-889 limits assumed) above
T3 sequence (P06756 891-1048 partner limits assumed): as the sequence (P06756 891-1048 partner limits assumed) above
T3 sequence (P05106 27-788): as the sequence (P05106 27-788) above
T4 sequence (P06756 31-889 limits assumed): as the sequence (P06756 31-889 limits assumed) above
T4 sequence (P06756 891-1048 partner limits assumed): as the sequence (P06756 891-1048 partner limits assumed) above
T4 sequence (P05106 27-788): as the sequence (P05106 27-788) above

Row | Molecule | IC50 (HMVEC) | IC50 (GP IIb-IIIa (αIIbβ3); biotinylated-fibrinogen (10 nM) binding to immobilized αIIbβ3, read-out: IC50 αIIbβ3) | IC50 (α5β1) | IC50 (αvβ3; K562 transfected with αvβ3, adhesion to osteopontin, 1 hour, read-out: IC50 K562-tr Osteopontin (αvβ3)) | IC50 (placental αvβ3; biotinylated-fibrinogen (10 nM) binding to immobilized αvβ3, read-out: IC50 αvβ3) | IC50 (HT29; 72 hours culture) | IC50 (αvβ5; HT29 cells, adhesion to vitronectin, 1 hour, read-out: IC50 HT29 Vitronectin (αvβ5)) | % of inhibition at 33 μg/mesh in the presence of VEGF [1] | IC50 (HMVEC; HMVEC) | IC50 (GP IIb-IIIa (αIIbβ3)) | IC50 (αvβ3) | IC50 (placental αvβ3) | IC50 (HT29; Homo sapiens, HT-29, 72 hours culture) | IC50 (αvβ5)
1 | (2S)2-Benzenesulfonylamino-3-[5-(2-guanidinyl-ethylcarbamoyl)-thiophen-2-carbonyl]-amino propionic acid hydrochloride salt [Compound XI] | 870 nM | 0.31 nM | 5300 nM | 87 nM | 0.58 nM | 9900 nM | 210 nM | 38% | – | – | – | – | – | –
2 | N=C(N)NCCNC(=O)c1ccc(C(=O)NCC(Nc2ncccn2)C(=O)O)s1.O=C(O)C(F)(F)F.O=C(O)C(F)(F)F (stereo not shown) [Compound XXX, 3-{[5-(2-guanidino-ethylcarbamoyl)-thiophene-2-carbonyl]-amino}-2-(pyrimidin-2-ylamino)-propionic acid bis trifluoroacetic acid salt] | – | – | > 10000 nM | – | – | – | – | 31% | > 10000 nM | 690 nM | 3400 nM | 150 nM | > 10000 nM | > 10000 nM
